Calls of active or inactive are those of the source.
Columns and labels:
[1] = target: G-protein coupled receptor 55 (Homo sapiens, UniProt Q9Y2T6); test: SAR Analysis of Selective Antagonists of GPR55 using an Image-Based Assay - Set 4. [Related pubchem assays (depositor defined):AID2013, AID2026]; type: functional;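 note: antagonism of response to 5 µM lysophosphatidylinositol agonist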
[2] = target: T1, G-protein coupled receptor 35 (Homo sapiens, UniProt Q9HC97); test: SAR analysis of Agonists of the GPR35 Receptor using an Image-Based Assay - Set 4. [Related pubchem assays (depositor defined):AID2013, AID2026]; type: functional
[3] = target: T2, Cannabinoid receptor 2 (Homo sapiens, UniProt P34972); test: SAR analysis of antagonists of the Cannabinoid Receptor 2 using an Image-Based Assay - Set 3. [Related pubchem assays (depositor defined):AID2013, AID2026]; type: functional
[4] = target: T2, Cannabinoid receptor 2; test: SAR analysis of agonists of the Cannabinoid Receptor 2 using an Image-Based Assay - Set 3. [Related pubchem assays (depositor defined):AID2013, AID2026]; type: functional
[5] = target: T1, G-protein coupled receptor 35; test: SAR analysis of Antagonists of the GPR35 Receptor using an Image-Based Assay - Set 6. [Related pubchem assays (depositor defined):AID2013, AID2026]; type: functional
[6] = target: T3, Cannabinoid receptor 1 (Homo sapiens, UniProt P21554); test: SAR analysis of agonists of the Cannabinoid Receptor 1 using an Image-Based Assay - Set 4. [Related pubchem assays (depositor defined):AID2013, AID2026]; type: functional
[7] = target: T3, Cannabinoid receptor 1; test: SAR analysis of antagonists of the Cannabinoid Receptor 1 using an Image-Based Assay - Set 4. [Related pubchem assays (depositor defined):AID2013, AID2026]; type: functional
[8] = target: Type-1 angiotensin II receptor (Homo sapiens, UniProt P30556); test: agonist activity at AGTR1 – cell-based, uHTS hits, selectivity assay for APJ receptor agonist project, dose response (AID 488865); type: functional;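 note: beta-arrestin recruitment to AT1 measured by enzyme fragment complementation luminescence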
[9] = microbe, parasite or virus in culture; type: functional; conditions: Mycobacterium tuberculosis
[10] = target: Beta Lactamase (Pseudomonas aeruginosa, UniProt Q932Y6); test: BLA reporter interference, concentration series – BLA reporter cells, FRET fluorescence, artefact control for TLR9-MyD88 binding inhibitor project, dose response (AID 588341); type: cell-based;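 note: cell based assay in CHO-K1 cells stably expressing beta-lactamase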
[11] = blockers of HIV-1 ZM109 envelope-driven cell-cell fusion – HeLa effector, CEM target cells, luciferase, cherry-pick, dose response (AID 652058); type: functional, cell-based;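 note: luciferase signal from HIV-1 Env mediated cell-cell fusion of effector and target cells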
[12] = target: NACHT, LRR and PYD domains-containing protein 3 (Homo sapiens, UniProt Q96P20); test: NALP3 inhibitors in yeast, dose response, luminescent (AID 488799); type: functional
[13] = target: ATP-dependent molecular chaperone HSP82 (Candida albicans (strain WO-1) (Yeast), UniProt C4YTQ8); test: steroid-induced GRE reporter decrease in yeast – S. cerevisiae, luminescence, Hsp90 inhibitor project, dose response (AID 2400); type: functional, cell-based;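 note: beta-galactosidase luminescence from glucocorticoid response element reporter as proxy for Hsp90 function; inhibitor potency where signal loss means Hsp90 inhibition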
[14] = system: INS1; test: INS-1E survival protection against cytokine death – cell-based, luminescence, retest, dose response (AID 449756); type: functional; conditions: Rattus norvegicus;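 note: cell death triggered by IL-1 beta plus TNF-alpha plus IFN-gamma mixture; protective hits raise ATP signal compared with cytokine alone wells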
[15] = HIV-1 AD8 envelope cell-cell fusion blockers – cherry-pick, dose response (AID 652062); type: functional, cell-based;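 note: luciferase signal from cell-cell fusion driven by HIV-1 clade B AD8 Env; potency is for inhibitors of fusion seen as a drop in luminescence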
[16] = system: BJ; test: growth inhibition of engineered Ras-driven BJ cells – cell-based, alamar blue fluorescence, cherrypicked samples, dose response (AID 2631); type: functional; conditions: Homo sapiens;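 note: confirmatory dose-response assay in RAS-dependent BJ fibroblasts engineered with TERT, LT and ST, with cytotoxicity read by fluorescence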
[17] = alpha-synuclein stem-loop luciferase translation blockers – H4 neuroglioma cells, luminescence, confirmation (AID 1988); type: functional, cell-based
[18] = system: BJ; test: BJ-TERT fibroblast viability loss – cell-based, RAS-independent, luminescence, dose response (AID 1933); type: functional; conditions: Homo sapiens
[19] = blockers of HIV-1 envelope-mediated cell-cell fusion – cherry-pick, dose response (AID 652057); type: functional, cell-based
[20] = luciferase reporter signal suppression in cells – H4 neuroglioma cells, luminescence, dose response (AID 1990); type: functional, cell-based
[21] = alpha-synuclein stem-loop translation blockers – luminescence, H4 neuroglioblastoma cells, dose confirmation, confirmation (AID 2454); type: functional, cell-based;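 note: H4 neuroglioblastoma cells carrying an alpha-synuclein 5'UTR luciferase reporter; potency for inhibition of the luciferase signal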
[22] = system: BJ; test: BJ-TERT-LT-ST fibroblast viability loss – cell-based, RAS-independent, luminescence, dose response (AID 1935); type: functional; conditions: Homo sapiens;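 note: BJ fibroblasts immortalized with TERT plus LT and ST oncogenes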
[23] = system: CHO; test: CHO cell viability loss, potency – luminescence, cytotoxicity control for TLR9-MyD88 binding inhibitor project, dose response (AID 588339); type: functional, cell-based, hamster; conditions: Cricetulus griseus;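 note: CHO cells stably coexpressing TLR9 and MyD88 fusions from primary screen; compound exposure lasted 48 hours before viability readout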
[24] = target: Intestinal-type alkaline phosphatase (Mus musculus, UniProt P24822); test: mouse intestinal alkaline phosphatase activators, dose response, biochemical, luminescence, uHTS hits (AID 488783); type: functional
[25] = viability loss in CEM21 cells – cell-based, CellTiter-Glo luminescence, cherry-picked, cytotoxicity control for viral fusion inhibitor project, dose response (AID 652042); type: functional;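 note: potency for signal decrease meaning cytotoxicity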
[26] = system: Streptococcus sp. 'group A'; test: Streptococcus pyogenes SK(-)GAS viability under kanamycin – luminescence, BacTiterGlo, confirmation, counter-screen for streptokinase expression inhibitor project, dose response (AID 1900); type: functional, organism-based
[27] = DRD fibroblast viability loss – cell-based, non-viral oncogenic, luminescence, dose response (AID 1934); type: functional; conditions: Homo sapiens
[28] = Luminescence Cell-Based Dose Response HTS to Identify Inhibitors of 5'UTR Stem-Loop Driven Prion Protein mRNA Translation in H4 Neuroglioblastoma Cells. [Related pubchem assays: 1827 (Project Summary), 1813 (Primary HTS)]; type: functional
[29] = cells; type: functional, cell-based
[30] = target: Serine/threonine-protein phosphatase (Candida dubliniensis (strain CD36 / CBS 7987 / NCPF 3949 / NRRLY-17841) (Yeast), UniProt B9W6M3); test: blockers of CaCl2-induced CDRE-lacZ signaling – S. cerevisiae, luminescence, secondary, dose response (AID 2388); type: functional, cell-based;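 note: yeast reporter cells carrying a calcineurin-responsive lacZ construct stimulated with calcium chloride; luminescent beta-galactosidase reporter signal in whole cells rather than isolated phosphatase activity; potency for inhibition where a drop in reporter signal means calcineurin blockade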
[31] = target: Alkaline phosphatase, placental type (Homo sapiens, UniProt P05187); test: human placental alkaline phosphatase inhibition – biochemical, luminescence, confirmation (AID 1512); type: functional
[32] = off-target signal loss in HeLa-CEM21 co-culture – HeLa F-luc CTL cells, cherry-picked, counter-screen for HIV-1 Env fusion inhibitor project, dose response (AID 652040); type: functional, cell-based;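 note: potency for signal decrease marking cytotoxic or nonspecific inhibition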
[33] = system: BJ; test: cells; type: functional, cell-based; conditions: Homo sapiens
[34] = luciferase reporter signal reduction – luminescence, H4-C neuroglioblastoma cells, dose response (AID 2458); type: functional, cell-based;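 note: H4 neuroglioblastoma cells stably carrying a luciferase reporter gene fusion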
[35] = target: Hepatocyte nuclear factor 4-alpha (Homo sapiens, UniProt P41235); type: functional, cell-based;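 note: biochemical luminescence-based dose-response counterscreen measuring inhibition of HNF4 dimerization, run alongside a screen for blockers of ABHD5–perilipin-5 interaction; split luciferase complementation of HNF4 fusion proteins in cell lysate measuring dimerization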
[36] = fluconazole-exposed Candida albicans growth modulators – fluorescence, retest, confirmation (AID 2467); type: functional, cell-based
[37] = system: Streptococcus; test: GAS UMAA2166 growth inhibition – luminescence, BacTiterGlo, counter-screen for streptokinase expression inhibitor project, dose response (AID 1915); type: functional, organism-based;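 note: potency for reduction of bacterial viability or growth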
[38] = target: Intestinal-type alkaline phosphatase (Homo sapiens, UniProt P09923); test: activation of human intestinal alkaline phosphatase – biochemical, dose response (AID 488873); type: functional
[39] = NIH-3T3 fibroblast cytotoxicity, dose response, cytotoxicity control, cell-based, fluorescence, Alamar Blue, secondary assay (AID 2327); type: functional;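 note: NIH-3T3 mouse fibroblasts cultured with fluconazole at 8 µg/mL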
[40] = Luminescence Cell-Based Dose Response HTS to Identify Activators of 5'UTR Stem-Loop Driven Prion Protein mRNA Translation in H4-C Neuroglioblastoma Cells. [Related pubchem assays: 1829 (Project Summary), 1814 (Primary HTS)]; type: functional
[41] = Luminescence Cell-Based Dose Confirmation HTS to Identify Inhibitors of 5'UTR Stem-Loop Driven Alpha-Synuclein mRNA Translation in H4 Neuroglioblastoma Cells. [Related pubchem assays: 1827 (Project Summary), 1813 (Primary HTS)]; type: functional
[42] = Luminescence Cell-Based Dose Retest to Confirm Activators of 5'UTR Stem-Loop Driven Alpha-Synuclein mRNA Translation in H4 Neuroglioblastoma Cells. [Related pubchem assays (depositor defined):AID1813, AID1829]; type: functional
[43] = Luminescence Cell-Based Dose HTS Response to Identify Inhibitors of 5'UTR Stem-Loop Driven Prion Protein mRNA Translation in H4-C Neuroglioblastoma Cells. [Related pubchem assays (depositor defined):AID1814, AID1827]; type: functional
[44] = Luminescence Cell-Based Dose Response HTS to Identify Inhibitors of Luciferase Translation or Activity in H4-C Neuroglioblastoma Cells. [Related pubchem assays: 1813 (Primary HTS), 1827 (Project Summary)]; type: functional
[45] = Luminescence Cell-Based Dose Response HTS to Identify Activators of Luciferase Translation or Activity in H4-C Neuroglioblastoma Cells. [Related pubchem assays: 1829 (Project Summary), 1814 (Primary HTS)]; type: functional

T2 sequence (P34972 whole entry): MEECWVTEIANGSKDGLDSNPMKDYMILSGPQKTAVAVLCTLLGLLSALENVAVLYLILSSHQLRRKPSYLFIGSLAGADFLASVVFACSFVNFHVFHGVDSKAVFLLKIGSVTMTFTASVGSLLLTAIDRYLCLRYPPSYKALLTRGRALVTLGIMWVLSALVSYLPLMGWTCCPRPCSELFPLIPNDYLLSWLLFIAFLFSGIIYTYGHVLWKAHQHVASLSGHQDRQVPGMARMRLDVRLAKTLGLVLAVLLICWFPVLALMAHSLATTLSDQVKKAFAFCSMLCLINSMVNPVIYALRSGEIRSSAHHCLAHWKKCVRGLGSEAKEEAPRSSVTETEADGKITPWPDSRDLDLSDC
T3 sequence (P21554 whole entry): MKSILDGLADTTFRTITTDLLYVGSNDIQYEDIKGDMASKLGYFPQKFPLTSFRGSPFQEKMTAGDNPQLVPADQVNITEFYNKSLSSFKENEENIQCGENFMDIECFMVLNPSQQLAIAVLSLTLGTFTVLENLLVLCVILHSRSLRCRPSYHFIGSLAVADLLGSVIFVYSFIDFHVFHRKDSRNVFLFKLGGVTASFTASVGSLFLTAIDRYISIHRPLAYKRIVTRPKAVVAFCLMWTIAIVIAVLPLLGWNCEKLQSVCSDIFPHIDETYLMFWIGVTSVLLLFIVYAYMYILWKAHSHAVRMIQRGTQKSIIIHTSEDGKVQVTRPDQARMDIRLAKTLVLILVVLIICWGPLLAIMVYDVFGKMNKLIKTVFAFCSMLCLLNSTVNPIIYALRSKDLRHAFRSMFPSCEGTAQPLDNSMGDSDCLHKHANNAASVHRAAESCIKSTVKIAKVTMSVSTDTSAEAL
T1 sequence (Q9HC97 whole entry): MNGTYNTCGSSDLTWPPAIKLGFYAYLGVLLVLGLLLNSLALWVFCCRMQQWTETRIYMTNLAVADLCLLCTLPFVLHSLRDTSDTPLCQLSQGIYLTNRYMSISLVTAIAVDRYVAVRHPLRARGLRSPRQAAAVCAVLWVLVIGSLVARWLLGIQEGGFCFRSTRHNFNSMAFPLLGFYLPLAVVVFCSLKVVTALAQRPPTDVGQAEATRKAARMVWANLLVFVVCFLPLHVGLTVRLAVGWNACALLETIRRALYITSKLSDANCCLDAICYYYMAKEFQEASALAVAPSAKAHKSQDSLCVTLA
Beta Lactamase, sequence (Q932Y6 whole entry, the tested form may be a part): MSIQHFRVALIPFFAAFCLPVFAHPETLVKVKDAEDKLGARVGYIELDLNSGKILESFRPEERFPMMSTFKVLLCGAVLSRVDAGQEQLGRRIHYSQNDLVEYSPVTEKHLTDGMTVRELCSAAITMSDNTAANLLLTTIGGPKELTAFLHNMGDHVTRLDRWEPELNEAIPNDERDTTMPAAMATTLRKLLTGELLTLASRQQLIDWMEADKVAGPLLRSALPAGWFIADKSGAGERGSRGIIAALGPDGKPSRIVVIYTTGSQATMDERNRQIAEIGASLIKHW
G-protein coupled receptor 55, sequence (Q9Y2T6 whole entry): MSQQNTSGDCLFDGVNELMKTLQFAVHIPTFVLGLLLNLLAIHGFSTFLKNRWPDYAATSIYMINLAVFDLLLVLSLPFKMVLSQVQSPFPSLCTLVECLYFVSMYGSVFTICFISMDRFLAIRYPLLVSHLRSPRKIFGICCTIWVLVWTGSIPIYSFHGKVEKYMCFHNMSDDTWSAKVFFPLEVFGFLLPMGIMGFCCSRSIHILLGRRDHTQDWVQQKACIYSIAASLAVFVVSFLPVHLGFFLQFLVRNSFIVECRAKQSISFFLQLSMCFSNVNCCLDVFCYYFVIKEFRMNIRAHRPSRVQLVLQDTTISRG
NACHT, LRR and PYD domains-containing protein 3, sequence (Q96P20 whole entry, the tested form may be a part): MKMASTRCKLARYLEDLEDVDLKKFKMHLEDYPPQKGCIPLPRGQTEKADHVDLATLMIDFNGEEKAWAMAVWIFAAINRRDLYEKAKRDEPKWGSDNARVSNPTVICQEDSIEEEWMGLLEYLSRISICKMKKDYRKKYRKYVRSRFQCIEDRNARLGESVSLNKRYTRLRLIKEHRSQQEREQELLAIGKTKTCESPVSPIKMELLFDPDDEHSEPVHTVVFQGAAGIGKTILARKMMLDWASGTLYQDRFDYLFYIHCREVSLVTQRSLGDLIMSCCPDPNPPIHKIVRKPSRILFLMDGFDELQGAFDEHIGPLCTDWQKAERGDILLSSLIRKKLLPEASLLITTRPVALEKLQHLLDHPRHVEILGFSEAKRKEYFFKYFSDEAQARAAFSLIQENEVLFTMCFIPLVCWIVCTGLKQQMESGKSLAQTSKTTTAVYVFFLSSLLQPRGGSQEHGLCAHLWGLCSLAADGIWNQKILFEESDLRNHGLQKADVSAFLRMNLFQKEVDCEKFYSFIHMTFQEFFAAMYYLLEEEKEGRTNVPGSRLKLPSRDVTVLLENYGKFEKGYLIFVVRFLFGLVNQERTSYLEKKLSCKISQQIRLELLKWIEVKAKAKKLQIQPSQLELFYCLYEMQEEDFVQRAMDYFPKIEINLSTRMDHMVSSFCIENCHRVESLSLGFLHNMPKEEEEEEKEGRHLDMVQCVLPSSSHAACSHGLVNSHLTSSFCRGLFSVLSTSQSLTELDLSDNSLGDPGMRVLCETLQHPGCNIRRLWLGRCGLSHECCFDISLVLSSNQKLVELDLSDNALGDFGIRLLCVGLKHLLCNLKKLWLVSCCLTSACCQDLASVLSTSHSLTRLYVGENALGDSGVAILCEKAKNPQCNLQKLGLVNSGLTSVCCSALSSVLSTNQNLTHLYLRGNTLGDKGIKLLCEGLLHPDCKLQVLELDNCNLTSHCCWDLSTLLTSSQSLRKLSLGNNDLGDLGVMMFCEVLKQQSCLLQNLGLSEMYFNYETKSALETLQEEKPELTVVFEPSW
Intestinal-type alkaline phosphatase (Mus musculus, UniProt P24822), sequence (P24822 whole entry, the tested form may be a part): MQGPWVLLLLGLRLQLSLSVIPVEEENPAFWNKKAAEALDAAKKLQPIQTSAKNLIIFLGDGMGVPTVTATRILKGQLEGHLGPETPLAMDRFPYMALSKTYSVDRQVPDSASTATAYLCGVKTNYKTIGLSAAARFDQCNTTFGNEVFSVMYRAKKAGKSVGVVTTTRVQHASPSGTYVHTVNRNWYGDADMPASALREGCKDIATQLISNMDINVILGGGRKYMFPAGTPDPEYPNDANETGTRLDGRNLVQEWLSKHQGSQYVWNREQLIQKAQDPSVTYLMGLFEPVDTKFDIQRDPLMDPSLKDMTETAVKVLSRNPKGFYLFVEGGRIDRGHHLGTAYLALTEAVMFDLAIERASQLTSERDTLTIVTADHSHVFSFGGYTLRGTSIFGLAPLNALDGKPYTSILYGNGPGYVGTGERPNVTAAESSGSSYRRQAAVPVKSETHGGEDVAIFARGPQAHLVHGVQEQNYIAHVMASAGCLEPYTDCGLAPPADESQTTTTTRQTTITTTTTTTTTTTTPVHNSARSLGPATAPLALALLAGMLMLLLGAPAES
ATP-dependent molecular chaperone HSP82, sequence (C4YTQ8 whole entry): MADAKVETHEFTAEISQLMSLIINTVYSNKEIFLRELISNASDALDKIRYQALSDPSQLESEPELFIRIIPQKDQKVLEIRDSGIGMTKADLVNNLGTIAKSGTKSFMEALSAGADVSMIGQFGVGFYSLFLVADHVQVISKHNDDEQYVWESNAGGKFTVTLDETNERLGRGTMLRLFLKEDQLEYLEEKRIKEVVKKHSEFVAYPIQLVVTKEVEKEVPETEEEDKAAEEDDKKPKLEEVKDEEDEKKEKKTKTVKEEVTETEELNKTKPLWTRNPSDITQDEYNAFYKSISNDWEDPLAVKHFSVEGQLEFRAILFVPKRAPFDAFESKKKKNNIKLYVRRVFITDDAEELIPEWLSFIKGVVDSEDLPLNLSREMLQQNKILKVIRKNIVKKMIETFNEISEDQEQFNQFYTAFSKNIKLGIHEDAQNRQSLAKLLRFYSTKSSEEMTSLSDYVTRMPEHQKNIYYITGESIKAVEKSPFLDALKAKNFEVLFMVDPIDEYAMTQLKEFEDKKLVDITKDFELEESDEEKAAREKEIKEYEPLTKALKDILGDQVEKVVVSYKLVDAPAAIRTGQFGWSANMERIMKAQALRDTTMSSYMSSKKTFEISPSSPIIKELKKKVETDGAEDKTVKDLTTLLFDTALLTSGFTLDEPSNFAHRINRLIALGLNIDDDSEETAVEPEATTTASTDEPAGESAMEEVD
Serine/threonine-protein phosphatase, sequence (B9W6M3 whole entry): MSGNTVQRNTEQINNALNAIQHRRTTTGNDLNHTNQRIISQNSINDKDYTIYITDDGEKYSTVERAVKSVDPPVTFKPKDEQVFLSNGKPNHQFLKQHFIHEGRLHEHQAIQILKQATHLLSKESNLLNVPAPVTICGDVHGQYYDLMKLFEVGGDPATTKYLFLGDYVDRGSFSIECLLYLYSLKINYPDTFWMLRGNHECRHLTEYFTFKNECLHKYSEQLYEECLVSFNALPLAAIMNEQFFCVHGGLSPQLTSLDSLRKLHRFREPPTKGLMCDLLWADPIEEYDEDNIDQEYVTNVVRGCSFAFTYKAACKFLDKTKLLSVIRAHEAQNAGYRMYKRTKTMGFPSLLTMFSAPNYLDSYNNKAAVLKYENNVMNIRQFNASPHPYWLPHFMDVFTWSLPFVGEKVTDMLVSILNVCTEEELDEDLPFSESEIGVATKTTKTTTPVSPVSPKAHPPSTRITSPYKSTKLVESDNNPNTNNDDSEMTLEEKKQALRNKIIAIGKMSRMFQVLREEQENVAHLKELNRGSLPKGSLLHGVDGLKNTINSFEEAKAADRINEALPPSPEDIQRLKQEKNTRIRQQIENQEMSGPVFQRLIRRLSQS

## CCN(CC)S(=O)(=O)c1ccc(NC(=O)c2cc(-c3cccs3)nc3ccccc23)cc1
[1]
  IC50: > 32 µM (inactive)
[2]
  EC50: > 32 µM (inactive)
[3]
  IC50: > 32 µM (inactive)
[4]
  EC50: > 32 µM (inactive)
[5]
  IC50: > 32 µM (inactive)
[6]
  EC50: > 32 µM (inactive)
[7]
  IC50: 0.427 µM (active)

## CCN(CC)CCNC(=O)c1ccc(NC(=O)c2cc(-c3ccco3)nc3ccccc23)cc1
[8]
  EC50: > 100 µM (inactive)

## CCN1/C(=C/C=C/c2oc3ccc(-c4ccccc4)cc3[n+]2CC)Oc2ccc(-c3ccccc3)cc21
[9]
  CC50: 1.56 µM (active)
[10]
  IC50: 10.7 µM (inactive)
[11]
  AC50: 3.77 µM (active)
[12]
  IC50: 9.07 µM (active)
[13]
  EC50: 23.6 µM (active)
[14]
  AC50: 0.23 µM (active)
[15]
  AC50: 2.55 µM (active)
[16]
  EC50: < 0.104 µM (active)
[17]
  EC50: < 0.1 µM (active)
[18]
  EC50: 1.63 µM (inconclusive)
[19]
  AC50: 1.15 µM (active)
[20]
  EC50: < 0.1 µM (active)
[21]
  EC50: 0.659 µM (active)
[22]
  EC50: 3.42 µM (inconclusive)
[23]
  IC50: 1.45 µM (active)
[24]
  EC50: 22.2 µM (active)
[25]
  AC50: 1.59 µM (active)
[26]
  EC50: 1.5 µM (active)
[27]
  EC50: 1.04 µM (inconclusive)
[28]
  EC50: < 0.1 µM (active)
[29]
  EC50: 0.863 µM (active)
[30]
  EC50: 104 µM (active)
[31]
  IC50: > 100 µM (inactive)
[32]
  AC50: 6.77 µM (active)
[33]
  EC50: 1.32 µM (inconclusive)
[34]
  EC50: 0.696 µM (active)
[35]
  IC50: 3.88 µM (active)
[36]
  EC50: 0.976 µM (active)
[37]
  EC50: 3.89 µM (active)
[38]
  EC50: 24.2 µM (active)
[39]
  EC50: 3.16 µM (inconclusive)

## COc1ccc(N(CC(=O)Nc2cc(Cl)ccc2OC)S(=O)(=O)c2c(C)noc2C)cc1
[40]
  EC50: 3.56 µM (inconclusive)
[41]
  EC50: 21.5 µM (active)
[42]
  EC50: 21.5 µM (inconclusive)
[17]
  EC50: 5.82 µM (active)
[20]
  EC50: > 120 µM (not active)
[28]
  EC50: 106 µM (active)
[43]
  EC50: 3.56 µM (active)
[44]
  EC50: 4.39 µM (active)
[45]
  EC50: 4.39 µM (inconclusive)
